From patent US20060035905A1, “Formulations of phosphodiesterase 5 inhibitors and methods of use” (Becton, Dickinson and Company, priority 2004, published 2006)
Where two headings read alike, the source gives them in different places. Marks after values point to notes of the source that are not given here.

Key:
[1] = for Clearance: dose normalized; for Bioavailability: versus IV mesylate
Experimental: Intradermal injections were conducted at the flank region of Yucatan pigs using two different length of 31 gauge microneedles, 1.5 mm and 2.0 mm, noted as ID1.5 and ED 2.0, respectively. SC injections were conducted using regular half inch 30 gauge needles also at the flank region. […] After drug administration, blood samples were taken from the jugular vein port periodically and sera were collected after centrifugation and stored at −70° C. until analysis.
Pig serum samples (including pooled untreated serum) were briefly vortex-mixed and a 100 μl volume was transferred into a borosilicate glass screw-top conical test tube. 10 μl of the appropriate spiking solution was added to calibration and quality control (QC) samples. 10 μl of 50:50 methanol-water was added to study samples. […] The subsequent liquid/liquid extraction was performed by adding 2 ml of methyl t-butyl ether (MTBE) to each tube and vortex-mixing for 1 min, followed centrifugation at 3000 rpm for ˜10 min. Then the aqueous layer was frozen in dry-ice acetone bath and MTBE layer was decanted to glass tubes and dried in the TurboVap at 35° C. The samples were reconstituted in 200 μl acetonitrile containing 1% acetic acid and 0.025% TFA for LC-MS-MS analysis.
The standards and QCs for LC-MS-MS were made from a stock solution in MeOH-water 1:1, v/v. Calibration standard at concentrations of 10, 20, 500, 200, 500, 1000, 2500 and 5000 ng/ml. QCs were prepared at levels of 20, 2000, 4000 ng/ml. All standard and QCs were aliquoted and stored at 2-8° C. The LC-MS-MS system consisted of a Shimazu HPLC system (Kyoto, Japan) and a Sciex API 3000 tandem mass spectrometer (Ontario, Canada) with electrospray ionization in the positive ion mode [(+)-ESI]. The analytical column, Betasil silica of 5 μm, 50×3 mm I.D., was purchased from Keystone Scientific (Bellefonte, Pa., USA) and operated at 30° C. The mobile phase was a mixture of acetonitrile/water at 15/85 v/v and contains 1% acetic acid and 0.025% TFA. The injection volume was 30 μl. The run time was 3 min and the flow was 0.3 ml/min. The mass spectrometer was operated under multiple reaction monitoring mode with the ionspray needle maintained at 1.5 kV. The turbo gas temperature was 400° C. Nebulizing gas, curtain gas, and collision gas flows were at instrument settings of 8, 8, and 12, respectively. The declustering potential (DP), focusing potential (DP) and collision energy (CE) were at 65, 240, and 54 V, respectively.

[2] = in vivo; design: species or system Sprague-Dawley rats; details: rat
Experimental: Animal surgery: The rat's femoral vein was cannulated for blood sampling for every group. For IN rats, an incision was made in the trachea and a polypropylene tube was inserted as an airway. To seal the pass way between the nasal cavity and trachea, a sealed tube was inserted through the same incision into the posterior of nasal cavity. Finally the nasopalatine was closed with an adhesive.
Blood samples were drawn from the femoral vein at predetermined time points.
20 μl of 12% perchloric acid was added to 80 μl rat serum followed by vortexing. Then 100 μl of water was added to achieve the sample volume required by HPLC assay.

[3] = IV, up to last sampling time point

In the case of sildenafil acetate, the MRT ([1]; ID 1.5 mm) is reported as 1.85 h and the “Terminal t½” value ([1]; ID 1.5 mm) is reported as 2.19 h.

For CCCc1nn(C)c2c(=O)[nH]c(-c3cc(S(=O)(=O)N4CCN(C)CC4)ccc3OCC)nc12 [sildenafil], the Cmax ([2]; Sprague-Dawley) was 547 ng/mL, the concentration at 5 min ([2]; Sprague-Dawley) was 428 ng/mL and the “time of maximum systemic concentration” value ([2]; Sprague-Dawley) was “around 15 min”. The “time of peak serum concentration” value ([2]; Sprague-Dawley) was “approximately 10 minutes”, the Cmax ([2]; Sprague-Dawley, Cmax) was about 1000 ng/mL and the “maximum serum drug level (in words)” value ([2]; sc) was “comparable maximum serum drug level to the ID group”. The “time of Cmax” value ([2]; sc) was 30 to 60 min.

For sildenafil mesylate, the MRT ([1]; ID 1.5 mm) was 1.90 h, the “Terminal t½” value ([1]; ID 1.5 mm) was 2.27 h and the Tmax ([1]; ID 1.5 mm) was 0.083^c hr. The Clearance ([1]; ID 1.5 mm) was 42.2835 mL/min/kg, the AUC ([1]; ID 1.5 mm, up to last sampling time point) was 116.21 ng·h/mL and the Bioavailability ([1]; ID 1.5 mm) was 56.95^c %. The Bioavailability ([1]; ID 1.5 mm, listed as mesylate salt) was about 55%, the Cmax ([1]; ID 1.5 mm, ~5 mg sildenafil, average) was 93.13 ng/mL and the MRT ([1]; ID 2.0 mm) was 2.27 h. The “Terminal t½” value ([1]; ID 2.0 mm) was 3.83 h, the Tmax ([1]; ID 2.0 mm) was 0.18 h and the Clearance ([1]; ID 2.0 mm) was 35.7202 mL/min/kg. The AUC ([1]; ID 2.0 mm, up to last sampling time point) was 133.56 ng·h/mL, the Bioavailability ([1]; ID 2.0 mm) was 66.79^c % and the Cmax ([1]; ID 2.0 mm, ~5 mg sildenafil, average) was 70.98 ng/mL. The “Terminal t½” value ([1]; IV) was 3.01 h, the Clearance ([1]; IV) was 23.558 mL/min/kg and the AUC [1, 3] was 229.41 ng·h/mL. The MRT [1, 3] was 1.90 h, the Cmax ([1]; IV, ~5 mg sildenafil, average) was 307.35 ng/mL and the Tmax ([1]; IV, ~5 mg sildenafil, average) was 0.0^b hr. The MRT ([1]; SC) was 2.43 h, the “Terminal t½” value ([1]; SC) was 2.84 h and the Tmax ([1]; SC) was 0.12 h. The Clearance ([1]; SC) was 45.6718 mL/min/kg, the AUC ([1]; SC, up to last sampling time point) was 120.13 ng·h/mL and the Bioavailability ([1]; SC) was 54.77^c %. The Bioavailability ([1]; SC, listed as mesylate salt) was about 55% and the Cmax ([1]; SC, ~5 mg sildenafil, average) was 111.28 ng/mL.
